Here are results for 61 molecules from ChEMBL document CHEMBL5532675, “Discovery of 4-Ethoxy-6-chloro-5-azaindazoles as Novel PDE4 Inhibitors for the Treatment of Alcohol Use Disorder and Alcoholic Liver Diseases” (J Med Chem, 2024).

In experiment [1] the target is T1, 3',5'-cyclic-AMP phosphodiesterase 4D (Homo sapiens, UniProt Q08499). Briefly: Inhibition of PDE4D7 (unknown origin) using FAM-cyclic-3',5'-AMP as substrate at 100 nM incubated for 1 hrs by fluorescence polarization based IMAP assay relative to control. (Polarisation of emitted light reports the rotation of a fluorescent probe.)
T1 sequence (Q08499 whole entry): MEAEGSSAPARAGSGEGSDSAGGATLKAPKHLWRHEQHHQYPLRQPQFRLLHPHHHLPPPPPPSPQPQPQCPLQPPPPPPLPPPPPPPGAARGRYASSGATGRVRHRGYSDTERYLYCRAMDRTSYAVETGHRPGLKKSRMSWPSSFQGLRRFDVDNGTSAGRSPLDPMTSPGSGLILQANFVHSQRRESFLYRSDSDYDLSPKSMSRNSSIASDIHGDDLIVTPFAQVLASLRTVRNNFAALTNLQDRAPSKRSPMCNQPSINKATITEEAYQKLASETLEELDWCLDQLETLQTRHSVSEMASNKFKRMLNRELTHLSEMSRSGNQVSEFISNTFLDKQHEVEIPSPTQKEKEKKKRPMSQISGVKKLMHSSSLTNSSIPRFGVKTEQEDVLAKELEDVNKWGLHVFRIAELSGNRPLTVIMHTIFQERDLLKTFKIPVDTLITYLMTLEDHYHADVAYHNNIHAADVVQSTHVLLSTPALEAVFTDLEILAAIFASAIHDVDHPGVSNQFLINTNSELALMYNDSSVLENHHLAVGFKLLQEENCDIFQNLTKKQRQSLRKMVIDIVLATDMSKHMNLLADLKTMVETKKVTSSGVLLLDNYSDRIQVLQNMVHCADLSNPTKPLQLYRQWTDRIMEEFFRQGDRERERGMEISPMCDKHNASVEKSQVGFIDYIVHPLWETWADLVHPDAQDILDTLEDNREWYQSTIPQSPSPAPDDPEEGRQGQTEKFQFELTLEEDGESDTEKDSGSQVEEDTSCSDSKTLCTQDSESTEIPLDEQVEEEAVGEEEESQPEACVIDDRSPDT
Experiment [2] concerns the target T1, 3',5'-cyclic-AMP phosphodiesterase 4D. In words: Inhibition of PDE4D7 (unknown origin) using FAM-cyclic-3',5'-AMP as substrate at 10 nM incubated for 1 hrs by fluorescence polarization based IMAP assay relative to control.
For experiment [3] the target is unchanged. Briefly: Inhibition of PDE4D7 (unknown origin) using FAM-cyclic-3',5'-AMP as substrate at 1 microM incubated for 1 hrs by fluorescence polarization based IMAP assay relative to control.
For experiment [4] the target is unchanged. Briefly: Inhibition of PDE4D7 (unknown origin) using FAM-cyclic-3',5'-AMP as substrate incubated for 1 hrs by fluorescence polarization based IMAP assay.

With `CCOc1nc(Cl)cc2c1cnn2CC#N`, the inhibition in experiment [1] was 5%; in experiment [2], 3%.

Regarding `CNc1nc(Cl)cc2c1cnn2C1CCCC1`, the inhibition in experiment [3] worked out at 59%; in experiment [1], 15%.

With `Clc1cc2c(cnn2C2CCOCC2)c(OC2CC2)n1`, the results for the inhibition in experiment [3] and in experiment [1] were 8% and 4%, respectively.

As to `CCOc1nc(Cl)cc2c1c(C)nn2CCCC(=O)O`, the figures for the inhibition in experiment [1] and in experiment [2] were 11% and 6%, respectively.

`CCOc1nc(Cl)cc2c1cnn2CCC(=O)NO`: the inhibition in experiment [1] is 18%; in experiment [2], 9%.

With `CNc1nc(Cl)cc2c1cnn2C1CCOCC1`, the inhibition in experiment [3] and in experiment [1] was 0% in each case.

`CCOc1nc(Cl)cc2c1c(NCc1ccccc1)nn2CCCC(=O)O`: the figures for the inhibition in experiment [1] and in experiment [2] were 18% and 4%, respectively.

For the molecule `CCNc1nc(Cl)cc2c1cnn2C1CCCC1`, the results for the inhibition in experiment [3] and in experiment [1] were 28% and 5%, respectively.

For `CCOc1nc(Cl)cc2c1c(CC)nn2CCCC(=O)O`, the inhibition came out at 48% in experiment [1] and 15% in experiment [2].

Consider `COc1nc(Cl)cc2c1cnn2C1CCOCC1`, for which the inhibition in experiment [3] worked out at 75%; in experiment [1], 35%.

For `CCOc1nc(Cl)cc2c1cnn2CCCC(=O)NO`, the inhibition in experiment [1] is 19%; in experiment [2], 5%.

Consider `CCOc1nc(Cl)cc2c1cnn2CCCO`, for which the inhibition in experiment [1] was determined as 8%; in experiment [2], 5%.

With `CCOc1nc(Cl)cc2c1c(Nc1ccccc1)nn2CCCC(=O)O`, the inhibition was determined as 9% in experiment [1] and 7% in experiment [2].

As for `CCOc1nc(Cl)cc2nn(CCCC(=O)NO)cc12`, in experiment [4], the IC50 worked out at 51.7 nM. Moreover, the inhibition in experiment [1] stood at 63%; in experiment [2], 18%.

Regarding `CCOc1nc(Cl)cc2c1c(C1CCCCC1)nn2CCCC(=O)O`, the inhibition in experiment [1] was determined as 11%; in experiment [2], 6%.

In experiment [1], `CCOc1nc(Cl)cc2c1cnn2CC1(C)COC1` gave an inhibition of 7%.

In the case of `CCOc1nc(Cl)cc2c1cnn2CC(N)=O`, the inhibition in experiment [1] and in experiment [2] was 3% each time.

For `CCOc1nc(Cl)cc2c1cnn2Cc1cccnc1`, in experiment [1], the inhibition amounted to 5%.

For the molecule `CCOc1nc(Cl)cc2c1cnn2CCCCO`, the values for the inhibition in experiment [1] and in experiment [2] were 6% and 5%, respectively.

In the case of `CCOc1nc(Cl)cc2c1c(C1CC1)nn2CCCC(=O)O`, the inhibition in experiment [1] turned out to be 13%; in experiment [2], 8%.

`FC(F)(F)COc1nc(Cl)cc2c1cnn2C1CCOCC1`: the inhibition worked out at 35% in experiment [3] and 16% in experiment [1].

`CCOc1nc(Cl)cc2c1cnn2-c1cccc(OC)c1` yielded an inhibition in experiment [1] of 7%.

Consider `CCOc1nc(Cl)cc2c1cnn2CC(=O)N(C)O`, for which the inhibition in experiment [1] was determined as 8%; in experiment [2] it was 5%.

On to `CCOc1nc(Cl)cc2c1cnn2CC(=O)NOC`, for which the inhibition in experiment [1] is 6%; in experiment [2] it was 4%.

Take `CCOc1nc(C(C)=O)cc2c1cnn2C1CCOCC1`: the inhibition was 9% in experiment [3] and 6% in experiment [1].

On to `Clc1cc2c(cnn2C2CCOCC2)c(OC2CCCC2)n1`, for which the figures for the inhibition in experiment [3] and in experiment [1] were 10% and 5%, respectively.

Take `CCOc1nc(Cl)cc2nn(CC3CCCO3)cc12` (stereo not given): in experiment [1], the inhibition came out at 10%.

`CCOc1nc(Cl)cc2c1cnn2C(C)c1ccc(C(F)(F)F)cc1` (stereo not given): in experiment [1], the inhibition amounted to 14%.

On to `CCOc1nc(Cl)cc2c1c(C(F)(F)F)nn2CCCC(=O)O`, for which the inhibition turned out to be 53% in experiment [1] and 23% in experiment [2].

`CCOc1nc(Cl)cc2c1c(-c1ccc(OC)cc1)nn2CCCC(=O)O`: the inhibition came out at 16% in experiment [1] and 7% in experiment [2].

In the case of `CCOc1nc(Cl)cc2c1cnn2CCC(=O)O`, the figures for the inhibition in experiment [1] and in experiment [2] were 19% and 8%, respectively.

As for `CCOc1nc(Cl)cc2c1c(-c1ccncc1)nn2CCCC(=O)O`, the inhibition in experiment [1] worked out at 24%; in experiment [2], 5%.

As for `CCOc1nc(Cl)cc2nn(CCCC(=O)O)cc12`, the values for the inhibition in experiment [1] and in experiment [2] were 8% and 6%, respectively.

As to `CCOc1nc(C)cc2c1cnn2C1CCOCC1`, in experiment [1], the inhibition was 5%.

On to `CCOc1nc(Cl)cc2nn(CC(=O)O)cc12`, for which the inhibition worked out at 7% in experiment [1] and 5% in experiment [2].

For `CC(C)Oc1nc(Cl)cc2c1cnn2C1CCOCC1`, the inhibition came to 30% in experiment [3] and 12% in experiment [1].

For `CCOc1nc(Cl)cc2c1c(-c1cccc(OC)c1)nn2CCCC(=O)O`, the inhibition amounted to 6% in experiment [1] and 3% in experiment [2].

In the case of `CCOc1nc(Cl)cc2c1cnn2-c1ccc(OC)cc1`, the inhibition in experiment [1] worked out at 5%.

Consider `CCOc1nc(Cl)cc2c1cnn2CC1CCCO1` (stereo not given), for which the inhibition in experiment [1] came to 4%.

With `CCOc1nc(Cl)cc2c1cnn2CCO`, the inhibition in experiment [1] is 4%; in experiment [2], 3%.

Take `CCOc1nc(Cl)cc2nn(-c3cccc(OC)c3)cc12`: in experiment [1], the inhibition amounted to 8%.

As to `CCCOc1nc(Cl)cc2c1cnn2C1CCOCC1`, the figures for the inhibition in experiment [3] and in experiment [1] were 5% and 2%, respectively.

Take `CCOc1nc(-c2ccsc2)cc2c1cnn2C1CCOCC1`: the inhibition in experiment [3] is 4%; in experiment [1], 3%.

For `CCOc1nc(Cl)cc2nn(CCO)cc12`, the inhibition in experiment [1] amounted to 5%; in experiment [2], 6%.

The molecule `CCOc1nc(Cl)cc2c1cnn2C1CCS(=O)(=O)CC1` returned an inhibition in experiment [1] of 3%.

As for `CCOc1nc(Cl)cc2c1c(/C=C/c1ccc(OC)cc1)nn2CCCC(=O)O`, the inhibition in experiment [1] turned out to be 5%; in experiment [2], 2%.

As to `CCOc1nccc2c1cnn2C1CCOCC1`, in experiment [1], the inhibition was 1%.

For `CCOc1nc(Cl)cc2c1cnn2CC(=O)O`, the inhibition in experiment [1] and in experiment [2] was 3% in each case.

`CCOc1nc(-c2ccccc2)cc2c1cnn2C1CCOCC1`: the inhibition in experiment [3] is 32%; in experiment [1], 14%.

With `CCOc1nc(C(N)=O)cc2c1cnn2C1CCOCC1`, the figures for the inhibition in experiment [3] and in experiment [1] were 12% and 6%, respectively.

Consider `CCOc1nc(Cl)cc2c1c(-c1cccnc1)nn2CCCC(=O)O`, for which the inhibition in experiment [1] was 9%; in experiment [2] it was 4%.

On to `CCOc1nc(Cl)cc2nn(CCC(=O)NO)cc12`, for which, in experiment [4], the IC50 worked out at 38.7 nM. Also, the inhibition in experiment [1] amounted to 66%; in experiment [2], 25%.

Regarding `CCOc1nc(C#N)cc2c1cnn2C1CCOCC1`, in experiment [4], it took 230 nM to reach half-maximal inhibition (IC50). Besides, the inhibition in experiment [3] came to 82%; in experiment [1], 32%.

Consider `CCOc1nc(Cl)cc2c1c(NCC(C)C)nn2CCCC(=O)O`, for which the inhibition in experiment [1] is 27%; in experiment [2], 6%.

In experiment [1], `CCOc1nc(Cl)cc2nn(C3CCOCC3)cc12` came in with an inhibition of 35%.

The molecule `CNc1nc(Cl)cc2nn(C3CCOCC3)cc12` returned an inhibition in experiment [1] of 17%.

For `CCOc1nc(Cl)cc2c1cnn2CC(=O)NC`, the inhibition in experiment [1] and in experiment [2] was 4% in each case.

The molecule `CCOc1nc(Cl)cc2c1cnn2C1CCSCC1` had an inhibition in experiment [1] of 5%.

For the molecule `CCOc1nc(-c2cccs2)cc2c1cnn2C1CCOCC1`, the inhibition in experiment [3] was determined as 23%; in experiment [1], 4%.

Consider `CCOc1nc(Cl)cc2nn(CCCCO)cc12`, for which the values for the inhibition in experiment [1] and in experiment [2] were 3% and 4%, respectively.

Take `CCOc1nc(Cl)cc2c1cnn2CC1CCOC1` (stereo not given): the inhibition in experiment [1] worked out at 9%.

For orientation: inhibition means the drop in the measured response relative to a control, in per cent. As a reminder, the IC50 is the concentration that gives 50% inhibition.
